Test results from patent publication US20090131354A1, “miR-126 REGULATED GENES AND PATHWAYS AS TARGETS FOR THERAPEUTIC INTERVENTION” (priority 2007, published 2009).

Key:
A549 lung cancer cells = assay: Dose-dependent inhibition of proliferation (Alamar Blue), A549; assay type: cell-based, human; conditions: for % proliferation: normalized to mock-transfected cells (0 pM = 100%)
Description: Lipid-based reverse transfections were carried out in triplicate according to a published protocol (Ovcharenko et al., 2005) and the following parameters: Cells (5,000-12,000 per 96 well), 0.1-0.2 μl Lipofectamine™ 2000 (cat. no. 11668-019, Invitrogen Corp., Carlsbad, Calif., USA) in 20 μl OptiMEM (Invitrogen), 30 nM final concentration of miRNA in 100 μl. Electroporation of H226 cells was carried out using the BioRad Gene Pulser Xcell™ instrument (BioRad Laboratories Inc., Hercules, Calif., USA) with the following settings: 5×10^6 cells with 5 μg miRNA in 200 μl OptiMEM (1.6 μM miRNA), square wave pulse at 250 V for 5 ms. Electroporated H226 cells were seeded at 7,000 cells per 96-well in a total volume of 100 μl. All cells except for Calu-3 cells were harvested 72 hours post transfection or electroporation for assessment of cellular proliferation. Calu-3 cells were harvested 10 days post transfection. Proliferation assays were performed using Alamar Blue (Invitrogen) following the manufacturer's instructions. As a control for inhibition of cellular proliferation, siRNA against the motor protein kinesin 11, also known as Eg5, was used. Eg5 is essential for cellular survival of most eukaryotic cells and a lack thereof leads to reduced cell proliferation and cell death (Weil et al., 2002). siEg5 was used in lipid-based transfection following the same experimental parameters that apply to miRNA. The inventors also used a DNA topoisomerase II inhibitor, etoposide, at a final concentration of 10 μM and 50 μM as an internal standard for the potency of miRNAs. Etoposide is an FDA-approved DNA topoisomerase II inhibitor in the treatment of lung cancer. […] Percent (%) proliferation values from the Alamar Blue assay were normalized to values from cells treated with negative control miRNA. Percent proliferation of hsa-miR-126 treated cells relative to cells treated with negative control miRNA (100%) is shown in Table 6 and in FIG. 1.
The inventors determined sensitivity and specificity of hsa-miR-126 by administering hsa-miR-126 or negative control miRNA at increasing concentrations, ranging from 0 pM to 3,000 pM (Table 7, FIG. 2). Delivery of miRNA and assessment of cellular proliferation of A549 and H460 cells were done as described above. Proliferation values from the Alamar Blue assay were normalized to values obtained from mock-transfected cells (0 pM=100% proliferation). Increasing amounts of negative control miRNA (NC) had no effect on cellular proliferation of A549 or H460 cells (Table 7 and FIG. 2). In contrast, the growth-inhibitory phenotype of hsa-miR-126 is dose-dependent and correlates with increasing amounts of hsa-miR-126 (Table 7 and FIG. 2). Hsa-miR-126 induces a specific therapeutic response at concentrations as low as 300 pM.

[1] = tested on: PPC-1 prostate cancer cells; assay: Alamar Blue proliferation assay, PPC-1; assay type: cell-based, human; conditions: PPC-1 cells, 30 nM, normalized to negative control miRNA (100% proliferation)
Excerpt: The inventors assessed the therapeutic effect of hsa-miR-126 for prostate cancer by using 4 individual human prostate cancer cell lines. To measure cellular proliferation of prostate cancer cells, the following prostate cancer cell lines were used: PPC-1, derived from a bone metastasis; Du145, derived from a brain metastasis; RWPE2, derived from prostate cells immortalized by human papillomavirus 18 and transformed by the K-RAS oncogene; and LNCaP, derived from a lymph node metastasis (Stone et al., 1978; Horoszewicz et al., 1980; Brothman et al., 1991; Pretlow et al., 1993; Bello et al., 1997). PPC-1 and Du145 cells lack expression of the prostate-specific antigen (PSA) and are independent of androgen receptor (AR) signaling. In contrast, RWPE2 and LNCaP cells test positive for PSA and AR. Cells were transfected with synthetic hsa-miR-126 (Pre-miR™-hsa-miR-126, Ambion cat. no. AM 17100) or negative control miRNA (NC; Pre-miR™ microRNA Precursor Molecule-Negative Control #2; Ambion cat. no. AM17111) in a 96-well format using a lipid-based transfection reagent. […] Proliferation was assessed 4-7 days post-transfection using Alamar Blue™ (Invitrogen) following the manufacturer's instructions. […] Fluorescent light units (FLU) were measured after 3 hours, normalized to the control, and plotted as percent change in proliferation. […]

hsa-miR-126 (UCGUACCGUGAGUAAUAAUGC; synthetic pre-miR form, further chemistry not given here) [Synthetic hsa-miR-126 (Pre-miR™-hsa-miR-126, Ambion cat. no. AM17100)]
growth-inhibitory phenotype, dose dependence (A549 lung cancer cells; A549 and H460, 0 pM to 3,000 pM): dose-dependent | concentration inducing a specific therapeutic response (A549 lung cancer cells; A549 and H460, 0 pM to 3,000 pM tested): ≥ 300 pM | % proliferation (A549 lung cancer cells; A549 cells, 3 pM miRNA): 95.40% | % proliferation (A549 lung cancer cells; A549 cells, 30 pM miRNA): 92.87% | % proliferation (A549 lung cancer cells; A549 cells, 300 pM miRNA): 80.93% | % proliferation (A549 lung cancer cells; A549 cells, 3,000 pM miRNA): 74.50% | % proliferation [1]: 71.89%
